According to US20250072421A1, “ARYL DIHYDROPYRAN DERIVATIVE OR SALT THEREOF, PEST CONTROL AGENT CONTAINING SAME, AND METHOD FOR USE THEREOF” (ADEKA Corporation, priority 2021, published 2025):

Assays:
[1] = test system: Plutella xylostella; test: Insecticidal test against Plutella xylostella; conditions: 500 ppm drug solution, Chinese cabbage seedlings with eggs immersed about 30 sec, six days after immersion, 25° C.
[2] = test system: Laodelphax striatellus; test: Insecticidal test against Laodelphax striatellus; conditions: 500 ppm drug solution, rice seedlings immersed 30 seconds, three-instar insects, eight days after inoculation
[3] = test system: Frankliniella occidentalis; test: Insecticidal test against Frankliniella occidentalis; conditions: 500 ppm drug solution sprayed on Phaseolus vulgaris leaf pieces with hatched larvae, four days after treatment
[4] = test system: Dirofilaria immitis; test: Influence evaluation test on the growth of Dirofilaria immitis; format: cell-based; conditions: 168 h, read-out: development inhibition rate from the L3 stage larva to the L4-stage larva

Structure (SMILES) | rating of assessment (corrected mortality) against Plutella xylostella [1] | further results
O=C(Nc1ccc(F)cc1)C1=C(O)CC(c2ccc(OC(F)(F)F)cc2)OC1=O (centres unmarked) [1-86] | D or higher | 
COc1ccccc1C1CC(O)=C(C(=O)Nc2ccc(SC(F)(F)F)cc2)C(=O)O1 (centres unmarked) [1-132] | D or higher | 
CC1(C)C(O)=C(C(=S)Nc2ccc(F)cn2)C(=O)OC1c1ccc(C(F)(F)F)cc1 (centres unmarked) [1-71] |  | rating of assessment (corrected mortality) against Laodelphax striatellus [2]: D or higher
O=C(Nc1ccc(Oc2ccccc2)cc1)C1=C(O)CC(c2ccc(C(F)(F)F)cc2)OC1=O (centres unmarked) [1-14] | D or higher | 
N#Cc1ccc(C2CC(O)=C(C(=O)Nc3ccc(F)cc3)C(=O)O2)cc1 (centres unmarked) [1-97] | D or higher | 
O=C(Nc1ccc2c(c1)OCO2)C1=C(O)CC(c2ccc(C(F)(F)F)cc2)OC1=O (centres unmarked) [1-15] | D or higher | 
O=C(Nc1ccc(Cl)cc1)C1=C(O)CC(c2ccc(C(F)(F)F)cc2)OC1=O (centres unmarked) [1-5] | D or higher | 
O=C(Nc1cccs1)C1=C(O)CC(c2ccc(C(F)(F)F)cc2)OC1=O (centres unmarked) [1-7] | D or higher | 
COc1ccc(NC(=S)C2=C(O)CC(c3ccc(C(F)(F)F)cc3)OC2=O)cc1 (centres unmarked) [1-31] | D or higher | 
O=C(Nc1ccc(F)cn1)C1=C(O)CC(c2ccc(C(F)(F)F)nc2)OC1=O (centres unmarked) [1-76] | D or higher | rating of assessment (corrected mortality) against Laodelphax striatellus [2]: D or higher
Cc1ccc(NC(=O)C2=C(O)CC(c3ccc(C(F)(F)F)cc3)OC2=O)cc1 (centres unmarked) [1-73] | D or higher | 
CC1(C)C(O)=C(C(=O)Nc2ccc(F)cc2)C(=O)OC1c1ccc(C(F)(F)F)cc1 (centres unmarked) [1-22] | D or higher | 
CC1(C)C(O)=C(C(=S)Nc2ccc(F)cc2)C(=O)OC1c1ccc(C(F)(F)F)cc1 (centres unmarked) [1-67] | D or higher | 
O=C(Nc1ccc(F)cc1)C1=C(O)CC(c2ccc(C(F)(F)F)nc2)OC1=O (centres unmarked) [1-21] | D or higher | rating of assessment (corrected mortality) against Laodelphax striatellus [2]: D or higher; rating of assessment (corrected mortality) against Frankliniella occidentalis [3]: D or higher
O=C(Nc1ccc(F)cc1)C1=C(O)CC(c2ccc(C(F)(F)F)c(Cl)c2)OC1=O (centres unmarked) [1-1, 6-(3-chloro-4-(trifluoromethyl)phenyl)-N-(4-fluorophenyl)-4-hydroxy-2-oxo-5,6-dihydro-2H-pyran-3-carboxamide] | D or higher | inhibition at 10 µM [4]: ≥ 50%
C[S+]([O-])c1ccc(C2CC(O)=C(C(=O)Nc3ccc(F)cc3)C(=O)O2)cc1 (centres unmarked) [1-84] | D or higher | 
O=C(Nc1ccc(F)cc1)C1=C(O)CC(c2ccc([N+](=O)[O-])cc2)OC1=O (centres unmarked) [1-107] | D or higher | 
O=C(Nc1ccc(F)cc1)C1=C(O)CC(c2cc(-c3ccccc3)no2)OC1=O (centres unmarked) [1-78] | D or higher | 
COc1ccccc1C1CC(O)=C(C(=O)Nc2ccc(F)cc2)C(=O)O1 (centres unmarked) [1-131] | D or higher | 
O=C(NC1CC1)C1=C(O)CC(c2ccc(C(F)(F)F)cc2)OC1=O (centres unmarked) [1-74] | D or higher | 
O=C(Nc1ccc(F)cc1)C1=C(O)CC(c2ccc3c(c2)OCO3)OC1=O (centres unmarked) [1-103] | D or higher | 
O=C(Nc1ccc(F)cn1)C1=C(O)CC(c2ccc(C(F)(F)F)cc2)OC1=O (centres unmarked) [1-77] | D or higher | rating of assessment (corrected mortality) against Frankliniella occidentalis [3]: D or higher
CSc1ccc(C2CC(O)=C(C(=O)Nc3ccc(F)cc3)C(=O)O2)cc1 (centres unmarked) [1-83] | D or higher | 
O=C(Nc1ccc(F)cc1)C1=C(O)CC(c2ccc(SC(F)(F)F)cc2)OC1=O (centres unmarked) [1-135] | D or higher | 
O=C1OC(c2ccc(C(F)(F)F)cc2)C2(CCCCC2)C(O)=C1C(=S)Nc1ccc(F)cc1 (centres unmarked) [1-68, N-(4-fluorophenyl)-5-hydroxy-3-oxo-1-(4-(trifluoromethyl)phenyl)-2-oxaspiro[5.5]undec-4-en-4-carbothioamide] |  | inhibition at 10 µM [4]: ≥ 50%
O=C(Nc1ccccc1)C1=C(O)CC(c2ccc(C(F)(F)F)cc2)OC1=O (centres unmarked) [1-6] | D or higher | 
O=C(Nc1ccc(F)cc1)C1=C(O)CC(c2ccc(Cl)nc2)OC1=O (centres unmarked) [1-75] | D or higher | rating of assessment (corrected mortality) against Laodelphax striatellus [2]: D or higher; rating of assessment (corrected mortality) against Frankliniella occidentalis [3]: D or higher
CS(=O)(=O)c1ccc(C2CC(O)=C(C(=O)Nc3ccc(F)cc3)C(=O)O2)cc1 (centres unmarked) [1-85] | D or higher | 
